Values joined by “and” are separate entries in the source; they are usually repeats but may differ in a detail not shown here. Equal entries are not always repeated. “Also recorded” adds a separate entry of the source.
Assays:
PI5P4Kα [1] = target: T1, PI5P4Kα (Homo sapiens, UniProt P48426); assay: Miniaturized 1536-well luciferase-coupled bioluminescence (ADP-Glo) PI5P4Kα enzyme activity assay; format: biochemical; settings: for inhibitory activity against PI5P4Kα (in words): miniaturized assay / LOPAC1280 screen
T1 construct: made in house
T1 sequence (P48426 1-406): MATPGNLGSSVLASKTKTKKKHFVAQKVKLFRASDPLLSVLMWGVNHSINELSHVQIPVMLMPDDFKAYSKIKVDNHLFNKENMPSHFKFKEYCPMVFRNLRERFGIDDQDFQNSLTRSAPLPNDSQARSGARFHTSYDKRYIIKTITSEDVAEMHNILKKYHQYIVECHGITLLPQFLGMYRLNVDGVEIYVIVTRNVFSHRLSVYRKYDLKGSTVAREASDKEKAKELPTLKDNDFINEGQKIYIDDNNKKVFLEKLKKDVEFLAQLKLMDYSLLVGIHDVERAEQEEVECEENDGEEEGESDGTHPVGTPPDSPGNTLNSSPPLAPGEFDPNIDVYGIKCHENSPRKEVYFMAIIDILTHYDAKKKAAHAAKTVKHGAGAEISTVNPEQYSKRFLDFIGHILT
Protocol: PI5P4Kα (52.4 µL) was added to the lipid reagent (3 mL, described above) to form the enzyme-lipid mixture. First, 2 µL of the enzyme/lipid substrate reagent (2 µg/mL PI5P4Kα final concentration) were dispensed into a white solid-bottom 1536-well plate in columns 1–2, […] using a Flying Reagent Dispenser (FRD, Beckman Coulter, Fullerton, CA, USA). Into columns 3 and 4, 2 µL of a no-lipid and no-enzyme control were dispensed, respectively, where the lipid was replaced by DMSO or the enzyme was replaced by buffer (20 mM Hepes 7.4, 0.1% CHAPS) in the enzyme-lipid mixture. Then, 23 nL of the library compounds and control compounds were transferred by a 1536 pintool (Kalypsys Systems, San Diego, CA, USA) into wells 5–48 and 1–4, respectively. To initiate the reaction, 1 µL of the ATP solution (20 mM Hepes pH 7.4, 60 mM MgCl2, 0.015 mM ATP and 0.1% CHAPS) was added. The final concentration of DMSO in the reaction was 5%. The resulting mixture was incubated at room temperature in the dark for one hour, at which time 2 µL of ADP-Glo reagent 1 were added to stop the reaction and remove any remaining ATP. After a 45-minute incubation, 4 µL of the ADP-Glo reagent 2 were added and allowed to incubate for 30 minutes. The luminescence was then read with a ViewLux high-throughput CCD imager (Perkin Elmer, Waltham, MA, USA). A total of six plates were assayed: one DMSO plate for monitoring the background trends and five concentrations of the LOPAC library (152, 76, 15, 3 and 0.6 µM final assay concentrations, respectively). The top concentration in the assay was attained by two sequential pin transfers of the top concentration of the compound library.
Screening data were corrected and normalized, and concentration-response curves were derived using in-house algorithms. Overall assay performance, including trends in Z’ factor, % CV, and S/B, were recorded. Percent activity was computed after normalization using the median values of the uninhibited enzyme control (32 wells in column 1) and the no-enzyme, or 100% inhibited, control (32 wells, column 4). Additionally, the compound structures were evaluated, and the long chain compounds such as the C18 containing compounds from LOPAC^1280 that are likely to act by disrupting the lipid vesicles were eliminated. Selected actives were procured for re-testing in the primary screening assay and for use in the counter assays and substrate competition assay.

GST-PI5P4Kα = target: T2, GST-PI5P4Kα (Homo sapiens, UniProt P48426); assay: γ-32P-ATP incorporation assay and TLC (radiometric PI5P4K assay); format: biochemical
T2 construct: made in house
T2 sequence (P48426 1-406): T1 sequence (P48426 1-406)
Protocol: The PI5P4K assay was carried out as described in [10], [22], [23]. Briefly, the kinase reaction was carried out in a total of 50 µL of kinase buffer containing 20 µL of the resuspended lipids, 50 mM HEPES pH 7.4, 10 mM MgCl2, 10 µM non-radiolabeled ATP, 10 µCi [γ-^32P]-ATP with 0.1 µg of GST-PI5P4Kα for 7 minutes at room temperature. The reaction was terminated by adding 20 µL of 4 N HCl. Phosphoinositides were extracted by adding 70 µL of methanol/chloroform (1∶1, vol:vol) mix and subjected to TLC (thin-layer chromatography) separation using heat-activated 2% […] silica gel 60 plates (20 cm×20 cm, EMD Chemicals Inc., Billerica, MA, USA) and a 1-propanol/2 M acetic acid (65∶35, vol:vol) solvent system. The radiolabeled product, PI(4,5)P2, was quantified with a Phosphorimager (Molecular Dynamics, STORM840, GE Healthcare, Waukesha, WI, USA).

PI5P4Kα [2] = target: T1, PI5P4Kα; assay: Substrate (ATP) competition assay, miniaturized ADP-Glo PI5P4Kα assay; format: biochemical; settings: for dependence of potency on ATP: varied ATP concentration; for mode of inhibition with respect to ATP: IC50 vs [ATP]/Km, seven ATP concentrations
Excerpt: The experiment was otherwise conducted as described above for the miniaturized ADP-Glo enzyme assay.

[3] = target: insulin-like growth factor 1 receptor (IGF1R); parameters: method as in PMID 11123895; settings: cited from earlier work
IGF1R = test system: IGF1R; parameters: method as in PMID 11123895; settings: cited from earlier work
PI5P4Kα [4] = target: T1, PI5P4Kα; assay: Miniaturized 1536-well luciferase-coupled bioluminescence (ADP-Glo) PI5P4Kα enzyme activity assay; format: biochemical; settings: freshly plated stock of reacquired compound, 11-point titration
[5] = LOPAC1280 qHTS pilot screen, 5 µM ATP, 75 µM PI5P, 5% DMSO

## N#C/C(=C\c1ccc(O)c(O)c1)C(=O)NCCCc1ccccc1 [tyrphostin AG 555]
PI5P4Kα [1]; [5]
  IC50: 50 µM

## N#C/C(=C\c1ccc(O)c(O)c1)C(=O)NCCCNC(=O)/C(C#N)=C/c1ccc(O)c(O)c1 [tyrphostin AG 537]
PI5P4Kα [1]; [5]
  IC50: 32 µM

## N#CC(C#N)=Cc1cc(O)c(O)c(O)c1 [Tyrphostin AG-82]
GST-PI5P4Kα; tested at 100 µM
  inhibition at 100 µM: 75%
PI5P4Kα [1]; [5]
  IC50: 93 µM
PI5P4Kα [1]
  inhibitory activity against PI5P4Kα (in words): confirmed

## CCCCCCCCCCCCCCCCCCOC[C@H](COP(=O)(O)OCC[N+](C)(C)C)OC [1-O-Octadecyl-2-O-methyl-sn-glycero-3-phosphorylcholine]
PI5P4Kα [1]
  inhibitory activity against PI5P4Kα (in words): identified as inhibitors

## CCCCCCCC/C=C\CCCCCCCC(=O)N[C@@H](CO)Cc1ccc(O)cc1 [OMDM-2, (R)-N-oleoyl Tyrosinol]
PI5P4Kα [2]
  dependence of potency on ATP: did not vary with ATP
PI5P4Kα [1]; weak inhibitors, ADP-Glo assay
  IC50: ~30 µM

## N#CC(C#N)=Cc1ccc(O)c(O)c1 [AG18]
GST-PI5P4Kα; tested at 100 µM
  inhibition of PI5P4Kα (in words): not to significantly inhibit

## N#C/C(=C\c1c[nH]c2ccccc12)C(=O)c1ccc(O)c(O)c1 [tyrphostin AG 808]
PI5P4Kα [1]; [5]
  IC50: 18 µM

## CCCCCCCC/C=C\CCCCCCCC(N)=O [oleamide]
PI5P4Kα [2]
  dependence of potency on ATP: did not vary with ATP
PI5P4Kα [1]; weak inhibitors, ADP-Glo assay
  IC50: ~30 µM

## COc1c(C)c2c(c(O)c1C/C=C(\C)CCC(=O)O)C(=O)OC2 [MP, mycophenolate]
GST-PI5P4Kα; tested at 100 µM
  inhibition of PI5P4Kα (in words): not to significantly inhibit

## N#CC(C#N)=C(N)/C(C#N)=C/c1cc(O)c(O)c(O)c1 [tyrphostin 51]
PI5P4Kα [1]; [5]
  IC50: 5 µM

## Cc1[nH]c(/C=C2\C(=O)Nc3ccccc32)c(C)c1CCC(=O)O [SU6668]
GST-PI5P4Kα; tested at 100 µM
  inhibition of PI5P4Kα (in words): not to significantly inhibit

## N#C/C(=C\c1ccc(O)c(O)c1)C(=O)NCc1ccccc1 [tyrphostin AG 490]
PI5P4Kα [1]; [5]
  IC50: 89 µM

## N#C/C(=C\c1ccc(O)c(O)c1)C(N)=S [tyrphostin 47]
PI5P4Kα [1]; [5]
  IC50: 20 µM

## CC(C)[C@H](CO)Nc1nc(Nc2ccc(C(=O)O)c(Cl)c2)c2ncn(C(C)C)c2n1 [PVB, purvalanol B]
GST-PI5P4Kα; tested at 10 µM due to solubility limitations
  inhibition of PI5P4Kα (in words): not to significantly inhibit

## N#C/C(=C\c1ccc(O)c(O)c1)C(=O)c1ccc(O)c(O)c1 [tyrphostin AG 538]
[3]
  IC50: 60 nM
IGF1R
  inhibition of IGF1R in a cell assay (in words): inhibited IGF1R in a similar dose-dependent manner
PI5P4Kα [1]; [5]
  IC50: 14 µM

## COc1cc(/C=C(\C#N)C(=O)c2ccc(O)c(O)c2)cc(I)c1O [I-OMe-AG-538]
PI5P4Kα [2]
  mode of inhibition with respect to ATP: competitive inhibition; also recorded: competitive with respect to ATP
PI5P4Kα [2]; listed as I-OMe tyrphostin AG-538
  mode of inhibition with respect to ATP: ATP-competitive inhibitor
PI5P4Kα [2]; seven ATP concentrations 0.25xKm to 10xKm, Km of ATP 5 µM
  Ki: 500 nM
PI5P4Kα [4]
  IC50: 1000 nM
IGF1R
  inhibition of IGF1R in a cell assay (in words): inhibited IGF1R in a similar dose-dependent manner
PI5P4Kα [1]; [5]
  IC50: 2.5 µM and 2 µM

## N#CC(C#N)=Cc1ccc(O)c(O)c1 [tyrphostin 23]
PI5P4Kα [1]; [5]
  IC50: 45 µM

## CC(C)(C)c1cc(C=C(C#N)C#N)cc(C(C)(C)C)c1O [AG17]
GST-PI5P4Kα; tested at 100 µM
  inhibition of PI5P4Kα (in words): not to significantly inhibit

## COc1cc2ncnc(Nc3cccc(Cl)c3)c2cc1OC [tyrphostin AG 1478]
PI5P4Kα [1]; [5]
  IC50: 100 µM

## N#C/C(=C\c1ccc(O)c(O)c1)C(=O)Nc1ccccc1 [tyrphostin AG 494]
PI5P4Kα [1]; [5]
  IC50: 89 µM

Reference: PMC3542272, “A Homogeneous, High-Throughput Assay for Phosphatidylinositol 5-Phosphate 4-Kinase with a Novel, Rapid Substrate Preparation” (PLoS ONE, 2013)
